Results reported in patent US10047084B2, “Imidazolone derivatives, pharmaceutical compositions and uses thereof” (BEIJING FORELANDPHARMA CO. LTD., priority 2013, dated 2018).

Experiments:
Type in all cases: cell-based
PC-3 = assay: CTG cell survival assay, PC-3; details: Homo sapiens, PC-3 cells
From the text: (§1) 2. CTG Cell Survival Assay:
(§2) ATP is necessarily produced during the metabolic activities of viable cells, and there is a linear relationship between the content of ATP and the number of viable cells. Cell viability assay by CTG chemiluminescence is a general method for detecting the number of viable cells in the culture cells based on this principle. The addition of the CellTiter-Glo (CTG) reagent may induce cell lysis and produce chemiluminescent signals directly proportional to the amount of ATP in the well-plate, and thereby the cell proliferation activity in the well-plate can be measured by the reading values from the chemiluminescence.
(§3) 2.1 Experimental Materials and Instruments:
(§4) 2.4 Experimental Procedure: • 1.4.1 Cell Thawing: Cryogenic vials were removed from the liquid nitrogen container, directly immersed in a water bath at 37° C., and shaked from time to time to thaw. The cryogenic vials were removed from the water bath at 37° C., and transferred to the biosafe cabinet. Their lids were opened, and the cell suspensions were aspirated with pipettes, added to centrifuge tubes, and then added with more than 10 volumes of culture solution, mixed well; centrifuged for 5 min at 1000 rpm; the supernatant was discarded, and medium containing cell growth was added to resuspend cells. All cell suspensions were seeded to the T25 culture flasks and static cultured in an incubator at 37° C.; the culture solution were changed once on the next day, and continued to be cultured. • 2.4.2 Cell Passaging: After cells were grown to logarithmic phase and were 80%-90% confluent, cells were removed and placed in the biosafe cabinet, the old culture solution was discarded, and the cells were wetted and washed with PBS once or twice. An appropriate amount of 0.25% Trypsin-EDTA solution was added to the culture flasks. The flasks were placed in the carbon dioxide incubator at 37° C. for 2-5 min. An appropriate amount of cell growth medium containing 10% PBS was added to terminate the digestion, lightly swished, and transferred to the centrifuge tubes and centrifuged for 5 min at 1000 rpm. The cells were prepare (into cell suspensions for passaging and experimental use. • 2.4.3 Cell Plating • 2.4.3.1 A cell suspension was prepared: After cells were grown to logarithmic phase and were 80%-90% confluent, the cells were removed to the biosafe cabinet, and the old culture solution was discarded, then the cells were wetted and washed with PBS once or twice. An appropriate amount of 0.25% Trypsin-EDTA solution was added to the culture flask. The flask was placed in a carbon dioxide incubator at 37° C. for 2-5 min. An appropriate amount of the cell growth medium containing 10% PBS was added to terminate digestion, and was lightly swished. The solution was transferred to a centrifuge tube, centrifuged for 5 min at 1000 rpm, and counted. […] Secondly, 20 uM of the compound to be tested was diluted with the cell growth medium containing 0.2% DMSO in 3-fold dilution to obtain 9 concentrations, and there were 10 concentration gradients in total. • 2.4.4.3 Addition of the compounds to be tested: the prepared gradient dilution solutions of compounds to be tested were taken and added to the cell culture plate at 100 ul/well; at this point, the maximum concentration of compounds to be tested was 10 uM, and the concentration of DMSO was 0.1%.

SK-BR3/BT474 = assay: CTG cell survival assay, SK-BR3/BT474; details: SK-BR3/BT474 cells
From the text: as §1, §2, §3, §4

MV-4-11 = assay: CTG cell survival assay, MV-4-11; details: Homo sapiens, MV4-11, MV-4-11 cells
From the text: as §1, §2, §3
2.1.1 Experimental Materials: compounds to be tested, cell basal culture medium, RPMI Medium 1640 (Invitrogen, Cat#11875-093), fetal calf serum (FBS): Hyclone FETAL BOVINE SERUM DEFINED (Invitrogen, Cat#SH30070.03), antibiotics: Penicilin Streptomycin (Invitrogen, Cat#15140-122), phosphate buffer (Corning Cellgro, Cat#R21-040-CV), cell digestive solution: 0.25% Trypsin-EDTA (Invitrogen, Cat#25200-056), CTG detection kit: Promega, Cat#G7571, flat-bottom 96-well black bottom plate: NUNC, Cat#165305, T25 culture flask: NUNC, Cat#156367, T75 culture flask: NUNC, Cat#156439
2.2 Experimental Instruments: Carbon Dioxide Incubator, SANYO-MCO-20AIC, Biosafe Cabinet: BSC-1360-LIIA2, Table-Top High-Speed Refrigerated Centrifuge: SorvallST 16R, Microplate Rapid Oscillator: QB-9001, M3 Reader: SpectraMax M3, Microscope: OLYMPUS-CKX41/CKX31.
2.3 Preparation of Solutions and Reagents: Formulation of cell growth medium: RPMI Medium 1640+10% FBS+antibiotics, others: trypsin digestive solution, phosphate buffer (PBS), DMSO, CTG detection kit.
2.4 Experimental Procedure: • 1.4.1 Cell Thawing: Cryogenic vials were removed from the liquid nitrogen container, directly immersed in a water bath at 37° C., and shaked from time to time to thaw. The cryogenic vials were removed from the water bath at 37° C., and transferred to the biosafe cabinet. Their lids were opened, and the cell suspensions were aspirated with pipettes, added to centrifuge tubes, and then added with more than 10 volumes of culture solution, mixed well; centrifuged for 5 min at 1000 rpm; the supernatant was discarded, and medium containing cell growth was added to resuspend cells. All cell suspensions were seeded to the T25 culture flasks and static cultured in an incubator at 37° C.; the culture solution were changed once on the next day, and continued to be cultured. • 2.4.2 Cell Passaging: After cells were grown to logarithmic phase and were 80%-90% confluent, cells were removed and placed in the biosafe cabinet, the old culture solution was discarded, and the cells were wetted and washed with PBS once or twice. An appropriate amount of 0.25% Trypsin-EDTA solution was added to the culture flasks. The flasks were placed in the carbon dioxide incubator at 37° C. for 2-5 min. An appropriate amount of cell growth medium containing 10% PBS was added to terminate the digestion, lightly swished, and transferred to the centrifuge tubes and centrifuged for 5 min at 1000 rpm. The cells were prepare (into cell suspensions for passaging and experimental use. • 2.4.3 Cell Plating • 2.4.3.1 A cell suspension was prepared: After cells were grown to logarithmic phase and were 80%-90% confluent, the cells were removed to the biosafe cabinet, and the old culture solution was discarded, then the cells were wetted and washed with PBS once or twice. An appropriate amount of 0.25% Trypsin-EDTA solution was added to the culture flask. The flask was placed in a carbon dioxide incubator at 37° C. for 2-5 min. An appropriate amount of the cell growth medium containing 10% PBS was added to terminate digestion, and was lightly swished. The solution was transferred to a centrifuge tube, centrifuged for 5 min at 1000 rpm, and counted. […]

| Compound | EC50 (PC-3) | EC50 (SK-BR3/BT474) | EC50 (MV-4-11) |
| --- | --- | --- | --- |
| Cn1c(=O)n([C@H]2CC[C@H](O)CC2)c2c3cc(-c4ccc(-c5ccccc5)nc4)ccc3ncc21 [Example 25, 1-((1r,4r)-4-hydroxycyclohexyl)-3-methyl-8-(6-phenylpyridin-3-yl)-1H-imidazo[4,5-c]quinolin-2(3H)-one] | < 100 nM | < 500 nM | < 500 nM |
| CC(=O)N[C@H]1CC[C@@H](n2c(=O)n(C)c3cnc4ccc(-c5ccc(-c6cnn(C)c6)nc5)cc4c32)CC1 [Example 33, N-((1s,4s)-4-(3-methyl-8-(6-(1-methyl-1H-pyrazol-4-yl)pyridin-3-yl)-2-oxo-2,3-dihydro-1H-imidazo[4,5-c]quinolin-1-yl)cyclohexyl)acetamide] | < 200 nM | < 100 nM | < 500 nM |
| Cn1cc(-c2ccc(-c3ccc4ncc5c(c4c3)n([C@H]3CC[C@@H](NS(C)(=O)=O)CC3)c(=O)n5C)cn2)cn1 [Example 34, N-((1s,4s)-4-(3-methyl-8-(6-(1-methyl-1H-pyrazol-4-yl)pyridin-3-yl)-2-oxo-2,3-dihydro-1H-imidazo[4,5-c]quinolin-1-yl)cyclohexyl)methanesulfonamide] | < 100 nM | < 50 nM | < 200 nM |
| Cn1cc(-c2ccc(-c3ccc4ncc5c(c4c3)n([C@H]3CC[C@@H](C(=O)O)CC3)c(=O)n5C)cn2)cn1 [Example 35, (1s,4s)-4-(3-methyl-8-(6-(1-methyl-1H-pyrazol-4-yl)pyridin-3-yl)-2-oxo-2,3-dihydro-1H-imidazo[4,5-c]quinolin-1-yl)cyclohexanecarboxylic acid] |  | < 200 nM | < 500 nM |
| Cn1cc(-c2ccc(-c3ccc4ncc5c(c4c3)n(-c3ccc(C(C)(C)C(N)=O)cc3)c(=O)n5C)cn2)cn1 [Example 40, 2-methyl-2-(4-(3-methyl-8-(6-(1-methyl-1H-pyrazol-4-yl)pyridin-3-yl)-2-oxo-2,3-dihydro-1H-imidazo[4,5-c]quinolin-1-yl)phenyl)propionamide] | 10 nM | 25 nM | 30 nM |
| Cn1cc(-c2ccc(-c3ccc4ncc5c(c4c3)n(-c3ccc(C(C)(C)C(=O)O)cc3)c(=O)n5C)cn2)cn1 [Example 41, 2-methyl-2-(4-(3-methyl-8-(6-(1-methyl-1H-pyrazol-4-yl)pyridin-3-yl)-2-oxo-2,3-dihydro-1H-imidazo[4,5-c]quinolin-1-yl)phenyl)propionic acid] |  |  | 100 nM |
| Cn1c(=O)n([C@H]2CCN(S(C)(=O)=O)C2)c2c3cc(-c4ccc(-n5cccn5)nc4)ccc3ncc21 [Example 44, (S)-8-(6-(1H-pyrazol-1-yl)pyridin-3-yl)-3-methyl-1-(1-(methanesulfonyl)pyrrolidin-3-yl)-1H-imidazo[4,5-c]quinolin-2(3H)-one] | < 50 nM | 90 nM | 40 nM |
| Cn1cc(-c2ccc(-c3ccc4ncc5c(c4c3)n([C@H]3CCN(S(C)(=O)=O)C3)c(=O)n5C)cn2)nn1 [Example 45, (S)-3-methyl-8-(6-(1-methyl-1H-1,2,3-triazol-4-yl)pyridin-3-yl)-1-(1-(methanesulfonyl)pyrrolidin-3-yl)-1H-imidazo quinolin-2(3H)-one] | < 10 nM | < 20 nM | < 20 nM |
| Cn1c(=O)n([C@H]2CCN(S(C)(=O)=O)C2)c2c3cc(-c4ccc(-n5ccnn5)nc4)ccc3ncc21 [Example 46, (S)-8-(6-(1H-1,2,3-triazol-1-yl)pyridin-3-yl)-3-methyl-1-(1-(methanesulfonyl)pyrrolidin-3-yl)-1H-imidazo[4,5-c]quinolin-2(3H)-one] |  | 400 nM |  |
| Cn1cnc(-c2ccc(-c3ccc4ncc5c(c4c3)n([C@H]3CCN(S(C)(=O)=O)C3)c(=O)n5C)cn2)n1 [Example 48, (S)-3-methyl-8-(6-(1-methyl-1H-1,2,4-triazol-3-yl)pyridin-3-yl)-1-(1-(methanesulfonyl)pyrrolidin-3-yl)-1H-imidazo[4,5-c]quinolin-2(3H)-one] |  | < 100 nM |  |
| Cn1cc(-c2ccc(-c3ccc4ncc5c(c4c3)n([C@@H]3CCCN(S(=O)(=O)C4CC4)C3)c(=O)n5C)cn2)cn1 [Example 53, (R)-1-(1-(cyclopropylsulfonyl)piperidin-3-yl)-3-methyl-8-(6-(1-methyl-1H-pyrazol-4-yl)pyridin-3-yl)-1H-imidazo[4,5-c]quinolin-2(3H)-one] | < 20 nM | 100 nM |  |
| Cn1cc(-c2ccc(-c3ccc4ncc5c(c4c3)n([C@@H]3CCCN(S(N)(=O)=O)C3)c(=O)n5C)cn2)cn1 [Example 54, (R)-3-(3-methyl-8-(6-(1-methyl-1H-pyrazol-4-yl)pyridin-3-yl)-2-oxo-2,3-dihydro-1H-imidazo[4,5-c]quinolin-1-yl)piperidine-1-sulfamide] |  | 70 nM |  |
| Cn1cc(-c2ccc(-c3ccc4ncc5c(c4c3)n([C@@H]3CCCN(S(C)(=O)=O)C3)c(=O)n5C)cn2)nn1 [Example 58, (R)-3-methyl-8-(6-(1-methyl-1H-1,2,3-triazol-4-yl)pyridin-3-yl)-1-(1-(methanesulfonyl)piperidin-3-yl)-1H-imidazo[4,5-c]quinolin-2(3H)-one] |  |  | 60 nM |
| Cn1cc(-c2ccc(-c3ccc4ncc5c(c4c3)n(CCNS(C)(=O)=O)c(=O)n5C)cn2)cn1 [Example 63, N-(2-(3-methyl-8-(6-(1-methyl-1H-pyrazol-4-yl)pyridin-3-yl)-2-oxo-2,3-dihydro-1H-imidazo[4,5-c]quinolin-1-yl)ethyl)methanesulfonamide] |  | 300 nM |  |
| Cn1cc(-c2ccc(-c3ccc4ncc5c(c4c3)n(C3CN(S(C)(=O)=O)C3)c(=O)n5C)cn2)cn1 [Example 64, 3-methyl-8-(6-(1-methyl-1H-pyrazol-4-yl)pyridin-3-yl)-1-(1-(methanesulfonyl)azetidin-3-yl)-1H-imidazo[4,5-c]quinolin-2(3H)-one] |  | 200 nM |  |
